Experimental data: PubChem BioAssay (NCI)
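Dose response: 5 concentrations. Exposure: 48 h. Format: 96-well plates. Endpoint: linear interpolation; highest concentration if not reached. TGI marks complete inhibition of growth.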

These compounds were tested on SF-268 CNS (assay: NCI-60 cell line screen, 48 h).

`CO/N=C(/C(=O)OC)c1ccccc1COc1ccccc1C(F)(F)F` and `CCN(C(=O)N[C@@H](C)C(=O)N[C@@H](Cc1ccccc1)C(=O)OC)c1ccccc1` cannot be ordered by TGI: over 100 µM for the first, over 100 µM for the second.

`COc1cc(Nc2ccc3c(c2)CCC3)nc(OC)n1` and `CCOc1c(OC)cc(-c2nc3n(n2)C(=O)C(CC)S3)cc1OC` (stereo not given) cannot be ordered by TGI: over 100 µM for the first, over 10 µM for the second.

`CCOC(=O)c1c2cccccc-2nc1Nc1cccc2c(C)ccnc12` and `COc1ccc(-c2nc3ccccc3c(=S)n2OC(C)=O)cc1` cannot be ordered by TGI: over 10 µM for the first, over 25 µM for the second.

First: Cc1c2c(c(C)n1-c1ccccc1)C(=O)N(CCN1CCN(c3cccc(C(F)(F)F)c3)CC1)C2=O
Second: CN1CC[C@]2(c3cccc(O)c3)CC(=O)/C(=C/c3ccccc3)[C@@H]1C2
The TGI of the first is higher: over 100 µM for the first, 10.4 µM for the second.

Going from `CCOC(=O)CC/C(=N/Nc1ccc(Cl)cc1[N+](=O)[O-])C(=O)OCC` to `CN(C)Cc1cc(C(=O)/C=C/c2ccc([N+](=O)[O-])cc2)cc(CN(C)C)c1O`, the TGI falls from over 100 µM to 42.9 µM.

First: COc1cc(O)c2c(=O)c(OC)c(-c3ccc(OC)c(O)c3)oc2c1
Second: COc1ccc2oc(=N)c(C(=O)Nc3ccccc3)cc2c1
The TGI of the first is higher: over 100 µM for the first, 53.9 µM for the second.

`O=c1c2c(no[n+]2[O-])c2ccccc2n1-c1ccccc1` and `c1ccc(C2=NOC(c3ccccc3)N2C23CC4CC(CC(C4)C2)C3)cc1` (stereo not given) cannot be ordered by TGI: 20.1 µM for the first, over 10 µM for the second.

`Clc1ccc(C=NC23CC4CC(CC(C4)C2)C3)c(Cl)c1` and `O=c1onc2n1-c1cc(Cl)ccc1C(=S)N1CSCC21` (stereo not given) cannot be ordered by TGI: over 10 µM for the first, over 100 µM for the second.

First: OCCCc1ccc2c(c1)[C@H](CO)[C@@H](c1ccc(O)cc1)O2
Second: COc1ccc(C(=O)NCCN(C)C)c2nc3ccccc3cc12
The TGI of the first is higher: over 100 µM for the first, 9.82 µM for the second.

Going from `CCOC(=O)C(NC(=O)CC)(N1CCN(c2cc3c(cc2F)c(=O)c(C(=O)O)cn3C2CC2)CC1)C(F)(F)F` (stereo not given) to `C/C1=C\[C@H](C)C[C@H](C)OC(=O)[C@H](C)NC(=O)[C@@H](Cc2ccc(O)c(Br)c2)N(C)C(=O)[C@H](C)NC(=O)[C@@H](C)C1`, the TGI falls from over 100 µM to 1.57 µM.

`O=[N+]([O-])c1cc2oc(CSc3ccccc3)nc2cc1Cl` and `OC(C#CCN1CCCC1)(c1ccccc1)c1ccccc1Cl` (stereo not given) cannot be ordered by TGI: over 100 µM for the first, over 100 µM for the second.

`CC(C)(CO)CNc1nc(N)nc(Cl)c1/C=N/O` and `Cc1ccc(/C=C2/N=C(N/N=C\C(O)C(O)C(O)C(O)CO)NC2=O)cc1` (stereo not given) cannot be ordered by TGI: over 100 µM for the first, over 100 µM for the second.

`C=C(C)[C@H]1C2=CC(C(=O)OC)=C(C[C@H](C(=C)C)[C@@H](O)[C@@H](O)C3=C[C@H]1OC3=O)O2` and `COC1OC2COC(c3ccccc3)OC2C(O)C1OC(=S)c1ccccc1` (stereo not given) cannot be ordered by TGI: over 100 µM for the first, over 100 µM for the second.

`O=C(O)C(O)C(O)C(O)C(O)CO` (stereo not given) and `CC1OC(O[C@H]2C3C=CO[C@@H](OC4OC(CO)C(O)C(O)C4O)C3[C@@]3(COC(=O)/C=C/c4ccccc4)O[C@@H]23)C(O)C(O)C1O` (stereo not given in full) cannot be ordered by TGI: over 100 µM for the first, over 100 µM for the second.

`CSc1nc2c(c(N(C)C)n1)C(O)n1c(nc3ccccc31)S2` (stereo not given) and `O=C1CSC2(CC(/C=C/c3cccs3)=NN2c2cccc(S(=O)(=O)O)c2)N1c1nc2ccccc2s1` (stereo not given) cannot be ordered by TGI: over 100 µM for the first, over 100 µM for the second.

`C[C@@H]1CCC2[C@@H](C)[C@@H](O[C@H]3O[C@@H]4O[C@@]5(C)CCC6[C@H](C)CCC([C@H]3C)[C@]64OO5)O[C@@H]3O[C@@]4(C)CCC1[C@@]23OO4` (stereo not given in full) and `O=C(CCSC1=NCCCN1)c1ccc(F)cc1` cannot be ordered by TGI: over 25 µM for the first, 67.1 µM for the second.

Compared with `O=C(c1ccccc1)c1ccc2c(c1)NC(=O)c1ccccc1SSc1ccccc1C(=O)N2`, `CCCCOCCOC1=C(Cl)C(=O)c2c(O)ccc(O)c2C1=O` is lower in TGI: over 100 µM for the first, 3.18 µM for the second.

Each compound was assayed on SK-MEL-5 melanoma (assay: NCI-60 cell line screen, 48 h).

First: CO/N=C(/C(=O)OC)c1ccccc1COc1ccccc1C(F)(F)F
Second: CCN(C(=O)N[C@@H](C)C(=O)N[C@@H](Cc1ccccc1)C(=O)OC)c1ccccc1
The TGI of the first is lower: 25.8 µM for the first, over 100 µM for the second.

`COc1cc(Nc2ccc3c(c2)CCC3)nc(OC)n1` and `CCOc1c(OC)cc(-c2nc3n(n2)C(=O)C(CC)S3)cc1OC` (stereo not given) cannot be ordered by TGI: 62.3 µM for the first, over 10 µM for the second.

`CCOC(=O)c1c2cccccc-2nc1Nc1cccc2c(C)ccnc12` and `COc1ccc(-c2nc3ccccc3c(=S)n2OC(C)=O)cc1` cannot be ordered by TGI: over 10 µM for the first, over 25 µM for the second.

`Cc1c2c(c(C)n1-c1ccccc1)C(=O)N(CCN1CCN(c3cccc(C(F)(F)F)c3)CC1)C2=O` and `CN1CC[C@]2(c3cccc(O)c3)CC(=O)/C(=C/c3ccccc3)[C@@H]1C2` are within 1.5-fold of each other in TGI: 20.8 µM for the first, 14.7 µM for the second.

First: CCOC(=O)CC/C(=N/Nc1ccc(Cl)cc1[N+](=O)[O-])C(=O)OCC
Second: CN(C)Cc1cc(C(=O)/C=C/c2ccc([N+](=O)[O-])cc2)cc(CN(C)C)c1O
The TGI of the first is higher: over 100 µM for the first, 23.4 µM for the second.

`COc1cc(O)c2c(=O)c(OC)c(-c3ccc(OC)c(O)c3)oc2c1` and `COc1ccc2oc(=N)c(C(=O)Nc3ccccc3)cc2c1` cannot be ordered by TGI: over 100 µM for the first, over 100 µM for the second.

`O=c1c2c(no[n+]2[O-])c2ccccc2n1-c1ccccc1` and `c1ccc(C2=NOC(c3ccccc3)N2C23CC4CC(CC(C4)C2)C3)cc1` (stereo not given) cannot be ordered by TGI: 20 µM for the first, over 10 µM for the second.

`Clc1ccc(C=NC23CC4CC(CC(C4)C2)C3)c(Cl)c1` and `O=c1onc2n1-c1cc(Cl)ccc1C(=S)N1CSCC21` (stereo not given) cannot be ordered by TGI: over 10 µM for the first, over 100 µM for the second.

First: OCCCc1ccc2c(c1)[C@H](CO)[C@@H](c1ccc(O)cc1)O2
Second: COc1ccc(C(=O)NCCN(C)C)c2nc3ccccc3cc12
The TGI of the first is 13-fold higher: 32.7 µM for the first, 2.54 µM for the second.

First: CCOC(=O)C(NC(=O)CC)(N1CCN(c2cc3c(cc2F)c(=O)c(C(=O)O)cn3C2CC2)CC1)C(F)(F)F (stereo not given)
Second: C/C1=C\[C@H](C)C[C@H](C)OC(=O)[C@H](C)NC(=O)[C@@H](Cc2ccc(O)c(Br)c2)N(C)C(=O)[C@H](C)NC(=O)[C@@H](C)C1
The TGI of the first is higher: over 100 µM for the first, 0.315 µM for the second.

`O=[N+]([O-])c1cc2oc(CSc3ccccc3)nc2cc1Cl` and `OC(C#CCN1CCCC1)(c1ccccc1)c1ccccc1Cl` (stereo not given) are within 1.5-fold of each other in TGI: 33.7 µM for the first, 31.5 µM for the second.

Going from `CC(C)(CO)CNc1nc(N)nc(Cl)c1/C=N/O` to `Cc1ccc(/C=C2/N=C(N/N=C\C(O)C(O)C(O)C(O)CO)NC2=O)cc1` (stereo not given), the TGI rises from 18.8 µM to over 100 µM.

First: C=C(C)[C@H]1C2=CC(C(=O)OC)=C(C[C@H](C(=C)C)[C@@H](O)[C@@H](O)C3=C[C@H]1OC3=O)O2
Second: COC1OC2COC(c3ccccc3)OC2C(O)C1OC(=S)c1ccccc1 (stereo not given)
The TGI of the first is higher: over 100 µM for the first, 61.3 µM for the second.

`O=C(O)C(O)C(O)C(O)C(O)CO` (stereo not given) and `CC1OC(O[C@H]2C3C=CO[C@@H](OC4OC(CO)C(O)C(O)C4O)C3[C@@]3(COC(=O)/C=C/c4ccccc4)O[C@@H]23)C(O)C(O)C1O` (stereo not given in full) cannot be ordered by TGI: over 100 µM for the first, over 100 µM for the second.

`CSc1nc2c(c(N(C)C)n1)C(O)n1c(nc3ccccc31)S2` (stereo not given) and `O=C1CSC2(CC(/C=C/c3cccs3)=NN2c2cccc(S(=O)(=O)O)c2)N1c1nc2ccccc2s1` (stereo not given) cannot be ordered by TGI: over 100 µM for the first, over 100 µM for the second.

`C[C@@H]1CCC2[C@@H](C)[C@@H](O[C@H]3O[C@@H]4O[C@@]5(C)CCC6[C@H](C)CCC([C@H]3C)[C@]64OO5)O[C@@H]3O[C@@]4(C)CCC1[C@@]23OO4` (stereo not given in full) and `O=C(CCSC1=NCCCN1)c1ccc(F)cc1` cannot be ordered by TGI: over 25 µM for the first, 36.4 µM for the second.

Compared with `O=C(c1ccccc1)c1ccc2c(c1)NC(=O)c1ccccc1SSc1ccccc1C(=O)N2`, `CCCCOCCOC1=C(Cl)C(=O)c2c(O)ccc(O)c2C1=O` is lower in TGI: over 100 µM for the first, 1.98 µM for the second.

The compounds below were run on A498 renal (assay: NCI-60 cell line screen, 48 h).

Going from `CO/N=C(/C(=O)OC)c1ccccc1COc1ccccc1C(F)(F)F` to `COc1ccc2oc(=N)c(C(=O)Nc3ccccc3)cc2c1`, the TGI falls from over 100 µM to 39.8 µM.

Going from `COc1cc(Nc2ccc3c(c2)CCC3)nc(OC)n1` to `COc1cc(O)c2c(=O)c(OC)c(-c3ccc(OC)c(O)c3)oc2c1`, the TGI falls from over 100 µM to 15.3 µM.

`CCOC(=O)c1c2cccccc-2nc1Nc1cccc2c(C)ccnc12` and `O=c1c2c(no[n+]2[O-])c2ccccc2n1-c1ccccc1` cannot be ordered by TGI: over 10 µM for the first, 22.2 µM for the second.

Going from `Cc1c2c(c(C)n1-c1ccccc1)C(=O)N(CCN1CCN(c3cccc(C(F)(F)F)c3)CC1)C2=O` to `CN1CC[C@]2(c3cccc(O)c3)CC(=O)/C(=C/c3ccccc3)[C@@H]1C2`, the TGI falls from over 100 µM to 17 µM.

`CCOC(=O)CC/C(=N/Nc1ccc(Cl)cc1[N+](=O)[O-])C(=O)OCC` and `CCOC(=O)C(NC(=O)CC)(N1CCN(c2cc3c(cc2F)c(=O)c(C(=O)O)cn3C2CC2)CC1)C(F)(F)F` (stereo not given) cannot be ordered by TGI: over 100 µM for the first, over 100 µM for the second.

`Clc1ccc(C=NC23CC4CC(CC(C4)C2)C3)c(Cl)c1` and `c1ccc(C2=NOC(c3ccccc3)N2C23CC4CC(CC(C4)C2)C3)cc1` (stereo not given) cannot be ordered by TGI: over 10 µM for the first, over 10 µM for the second.

First: OCCCc1ccc2c(c1)[C@H](CO)[C@@H](c1ccc(O)cc1)O2
Second: O=[N+]([O-])c1cc2oc(CSc3ccccc3)nc2cc1Cl
The TGI of the first is higher: over 100 µM for the first, 59.2 µM for the second.

`CC(C)(CO)CNc1nc(N)nc(Cl)c1/C=N/O` and `O=c1onc2n1-c1cc(Cl)ccc1C(=S)N1CSCC21` (stereo not given) cannot be ordered by TGI: over 100 µM for the first, over 100 µM for the second.

Work on `C=C(C)[C@H]1C2=CC(C(=O)OC)=C(C[C@H](C(=C)C)[C@@H](O)[C@@H](O)C3=C[C@H]1OC3=O)O2` yielded a TGI of over 100 µM.
